Data reported in US20060264460A1 (Wyeth, priority 2005, published 2006).

The compounds below were run against T1, human Cot/Tpl2 kinase (Homo sapiens, UniProt P41279) (assay: Tpl2/Cot kinase assay: GST-MEK1 phosphorylation detected by ELISA (DELFIA Eu)). Conditions: 0.4 nM Tpl2, 35 nM GST-MEK1, 50 uM ATP, 1 h at 30° C.
T1 construct: human Cot/Tpl2 kinase construct encoding residues 30-398; 6His (N); made in house; host or cells: Sf9 insect cells, baculovirus system (BD Biosciences)
Type: biochemical
Protocol: Sf9 cells expressing the kinase were lysed in 50 mM NaPhosphate pH=8; 300 mM NaCl; 5 mM imidazole; 0.1 mM EGTA; 25 mM beta-glycerophosphate; 1% TX-100, 1% glycerol; 6 mM beta-mercaptoethanol and protease inhibitors. The lysate was clarified by centrifugation and was loaded onto a Ni-Sepharose column. The column was washed with 50 mM NaPhosphate pH=8; 300 mM NaCl; 15 mM imidazole; 1% glycerol; and 6 mM beta-mercaptoethanol. His-Tpl2 was eluted with 50 mM NaPhosphate pH=8; 300 mM NaCl; 250 mM imidazole; 1% glycerol; and 6 mM beta-mercaptoethanol. The eluted protein was further purified by size exclusion chromatography. Fractions corresponding to monomeric Tpl2 were then used in the assay.
Tpl2/Cot activity was directly assayed using GST-MEK1 as a substrate. GST-MEK1 phosphorylation on serine residues 217 and 221 was detected by ELISA. 0.4 nM Tpl2 was incubated with 35 nM GST-MEK1 in a kinase reaction buffer containing 20 mM MOPS pH=7.2; 50 uM ATP; 20 mM MgCl2; 1 mM DTT; 25 mM β-glycerophosphate; 5 mM EGTA; and 1 mM sodium orthovanadate for 1 h at 30° C. The compounds of the inventions solubilized in 100% DMSO were pre-diluted in assay buffer so that the final concentration of DMSO in the reaction was 1%. The kinase reaction was carried out in 100 ul volume on 96 well plates. The kinase reaction was then stopped with the addition of 100 mM EDTA. […] After a 1 hour incubation at room temperature, the detection plate was washed 4 times with TBST (TBS+0.05% Tween 20) and then incubated for another hour at room temperature with anti phospho-MEK1 antibody (Cell Signaling) 1:1000 in 10 mM MOPS 7.5; 150 mM NaCl; 0.05% Tween 20; 0.1% Gelatin; 0.02% NaN3; and 1% BSA. The detection plate was washed again and incubated for 30 min with DELFIA Europium (Eu) labeled goat anti-rabbit IgG (Perkin-Elmer), 1:4000 in the same buffer used for the primary incubation. After a final wash, Eu detection solution was added to each well and the Eu signal was measured in a Wallac Victor^2 Multilabel Counter. IC50 calculations were performed using the XLfit software package (IDBS, Guildford, UK).

T1 sequence (P41279 30-398): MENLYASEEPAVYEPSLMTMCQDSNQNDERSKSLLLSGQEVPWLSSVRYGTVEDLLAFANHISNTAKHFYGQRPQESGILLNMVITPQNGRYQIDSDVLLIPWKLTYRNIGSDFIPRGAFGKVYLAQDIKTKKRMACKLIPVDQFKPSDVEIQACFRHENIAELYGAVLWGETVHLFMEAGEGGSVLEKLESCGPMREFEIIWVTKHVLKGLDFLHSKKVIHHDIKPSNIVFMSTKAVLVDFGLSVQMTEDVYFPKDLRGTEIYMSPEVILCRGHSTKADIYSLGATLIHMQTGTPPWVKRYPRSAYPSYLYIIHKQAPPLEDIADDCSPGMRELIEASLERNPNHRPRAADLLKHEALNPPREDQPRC

Compared with N#Cc1cnc2c(Cl)cc(NCc3ccc(C(F)(F)F)[n+]([O-])c3)cc2c1Nc1ccc(F)c(Cl)c1 [Example 275, 8-Chloro-4-[(3-chloro-4-fluorophenyl)amino]-6-({[1-oxido-6-(trifluoromethyl)pyridin-3-yl]methyl}amino)quinoline-3-carbonitrile], N#Cc1cnc2c(C(F)(F)F)cc(NCc3ccccc3F)cc2c1Nc1ccc(F)c(Cl)c1 [Example 235, 4-[(3-chloro-4-fluorophenyl)amino]-6-[(2-fluorobenzyl)amino]-8-(trifluoromethyl)quinoline-3-carbonitrile] is higher in IC50: 370 nM for the first, over 40000 nM for the second.

First: N#Cc1cnc2ccc(NCc3cnc[nH]3)cc2c1Nc1cccnc1 [Example 263, 6-[(1H-imidazol-5-ylmethyl)amino]-4-(pyridin-3-ylamino)quinoline-3-carbonitrile]
Second: Cn1nc(C(C)(C)C)cc1Nc1c(C#N)cnc2ccc(NCc3cnc[nH]3)cc12 [Example 261, 4-[(3-tert-butyl-1-methyl-1H-pyrazol-5-yl)amino]-6-[(1 H-imidazol-5-ylmethyl)amino]quinoline-3-carbonitrile]
The IC50 of the first is lower: 1600 nM for the first, over 40000 nM for the second.

First: Cc1c(CNc2ccc3ncc(C#N)c(Nc4ccc(F)c(Cl)c4)c3c2)ncn1C [Example 128, 4-(3-chloro-4-fluorophenylamino)-6-((1,5-dimethyl-1H-imidazol-4-yl)methylamino)quinoline-3-carbonitrile]
Second: CN(C)C(=O)c1ccc2cc(CNc3ccc4ncc(C#N)c(Nc5ccc(F)c(Cl)c5)c4c3)n(C)c2c1 [Example 156, 2-((4-(3-chloro-4-fluorophenylamino)-3-cyanoquinolin-6-ylamino)methyl)-N,N,1-trimethyl-1H-indole-6-carboxamide]
The IC50 of the first is 130-fold lower: 3.2 nM for the first, 420 nM for the second.

Going from CCOCCOc1ccc(Br)c(CNc2ccc3ncc(C#N)c(Nc4ccc(F)c(Cl)c4)c3c2)c1 [Example 58, 6-[2-Bromo-5-(2-ethoxy-ethoxy)-benzylamino]-4-(3-chloro-4-fluoro-phenylamino)-quinoline-3-carbonitrile] to CCOC(=O)/C=C/c1cc(NCc2cnc[nH]2)cc2c(Nc3ccc(F)c(Cl)c3)c(C#N)cnc12 [Example 312, Ethyl(2E)-3-{4-[(3-chloro-4-fluorophenyl)amino]-3-cyano-6-[(1H-imidazol-5-ylmethyl)amino]quinolin-8-yl}acrylate], the IC50 rises from 1100 nM to 9700 nM (8.8-fold). The first is the more potent here.

CN(C)C(=O)c1cc(NCc2cccnc2)cc2c(Nc3ccc(F)c(Cl)c3)c(C#N)cnc12 [Example 94, 4-(3-chloro-4-fluorophenylamino)-3-cyano-N,N-dimethyl-6-(pyridin-3-ylmethylamino)quinoline-8-carboxamide] and N#Cc1cnc2c(I)cc(NCc3cccnc3)cc2c1Nc1cccc(Cl)c1 [Example 79, 4-(3-chlorophenylamino)-8-iodo-6-(pyridin-3-ylmethylamino)quinoline-3-carbonitrile] are within 1.5-fold of each other in IC50: 530 nM for the first, 570 nM for the second.

First: N#Cc1cnc2c(Cl)cc(NCCc3nnn[nH]3)cc2c1Nc1ccc(F)c(Cl)c1 [Example 200, 8-chloro-4-[(3-chloro-4-fluorophenyl)amino]-6-{[2-(1H-tetrazol-5-yl)ethyl]amino}quinoline-3-carbonitrile]
Second: N#Cc1cnc2c(Br)cc(NCc3cn(CCN4CCOC4=O)nn3)cc2c1Nc1ccc(F)c(Cl)c1 [Example 223, 8-bromo-4-(3-chloro-4-fluorophenylamino)-6-((1-(2-(2-oxooxazolidin-3-yl)ethyl)-1H-1,2,3-triazol-4-yl)methylamino)quinoline-3-carbonitrile]
The IC50 of the first is 1.8-fold higher: 68 nM for the first, 37 nM for the second.

Same assay, conditions: Table 2; Tpl2/Cot kinase, GST-MEK1 substrate, 50 uM ATP

CN(C)CCCNC(=O)CNc1cc(Cl)c2ncc(C#N)c(Nc3ccc(F)c(Cl)c3)c2c1 [Example 603] and N#Cc1cnc2c(Cl)cc(NCC(=O)NCCCN3CCOCC3)cc2c1Nc1ccc(F)c(Cl)c1 [Example 604] cannot be ordered by IC50: over 3000 nM for the first, over 3000 nM for the second.

First: CC(C)(C)CN1CCC(n2cc(CNc3cc(Br)c4ncc(C#N)c(Nc5ccc(F)c(Cl)c5)c4c3)nn2)CC1 [Example 542]
Second: N#Cc1cnc2c(Br)cc(NCc3cn(CCN4CCOCC4)cn3)cc2c1Nc1ccc(F)c(Cl)c1 [Example 488]
The IC50 of the first is 4.6-fold higher: 190 nM for the first, 41 nM for the second.

Compared with CC(C)(C)Nc1c(C#N)cnc2ccc(NCc3cccc[n+]3[O-])cc12 [Example 406], CS(=O)(=O)c1cccc(CNc2ccc3ncc(C#N)c(NC4CCCC4)c3c2)c1 [Example 414] is 1.9-fold lower in IC50: 5400 nM for the first, 2900 nM for the second. The second is the more potent here.

Compared with N#Cc1cnc2c(Br)cc(NCc3cn(COCc4ccccc4)nn3)cc2c1Nc1ccc(F)c(Cl)c1 [Example 638], COCCOCCn1cc(CNc2cc(Cl)c3ncc(C#N)c(Nc4ccc(F)c(Cl)c4)c3c2)nn1 [Example 564] is lower in IC50: over 3000 nM for the first, 21 nM for the second.

Compared with CC(C)(C)OC(=O)COc1ccc(CNc2ccc3ncc(C#N)c(Nc4ccc(F)c(Cl)c4)c3c2)cc1Br [Example 381], CN(C)CCCOc1ccc(CNc2ccc3ncc(C#N)c(Nc4cccc(Cl)c4)c3c2)cc1 [Example 347] is lower in IC50: over 40000 nM for the first, 600 nM for the second.

N#Cc1cnc2c(Cl)cc(NCc3cn(CCOCCOCCO)nn3)cc2c1Nc1ccc(F)c(Cl)c1 [Example 572] and Cc1cc(CNc2cc(Cl)c3ncc(C#N)c(Nc4ccc(F)c(Cl)c4)c3c2)n[nH]1 [Example 429] are within 1.5-fold of each other in IC50: 91 nM for the first, 100 nM for the second.

CC(C)(CNc1cc(Cl)c2ncc(C#N)c(Nc3ccc(F)c(Cl)c3)c2c1)N1CCOCC1 [Example 450] showed an IC50 of 2400 nM.

Same assay, conditions: Tpl2/Cot kinase, GST-MEK1 substrate, 50 uM ATP

Going from Cc1c(Cn2cc(CNc3cc(Cl)c4ncc(C#N)c(Nc5ccc(F)c(Cl)c5)c4c3)nn2)ccc[n+]1[O-] [Example 842] to CC(C)Cn1cc(CNc2cc(Cl)c3ncc(C#N)c(Nc4ccc(F)c(Cl)c4)c3c2)nn1 [Example 847], the IC50 rises from 0.9 nM to 170 nM (190-fold). The first is the more potent here.

First: N#Cc1cnc2c(Cl)cc(NCc3cn(CCCN4CCC(F)(F)CC4)nn3)cc2c1Nc1ccc(F)c(Cl)c1 [Example 841]
Second: N#Cc1cnc2c(Cl)cc(NCc3cn(CCCN4CCCCC4)nn3)cc2c1Nc1ccc(F)c(Cl)c1 [Example 712]
The IC50 of the first is 26-fold higher: 29 nM for the first, 1.1 nM for the second.

Compared with CC(C)(C)CN1CCC(n2cc(CNc3cc(Br)c4ncc(C#N)c(Nc5ccc(F)c(Cl)c5)c4c3)nn2)CC1 [Example 715], N#Cc1cnc2c(Br)cc(NCc3cn(CC4CCCNC4)nn3)cc2c1Nc1ccc(F)c(Cl)c1 (centres unmarked) [Example 718] is 5.8-fold lower in IC50: 190 nM for the first, 33 nM for the second. The second is the more potent here.

First: N#Cc1cnc2c(Cl)cc(NCC(=O)NCc3ccncc3)cc2c1Nc1ccc(F)c(Cl)c1 [Example 772]
Second: N#Cc1cnc2c(Cl)cc(NCC(=O)Nc3cccnc3)cc2c1Nc1ccc(F)c(Cl)c1 [Example 773]
The IC50 of the first is 2.3-fold lower: 48 nM for the first, 110 nM for the second. The first is the more potent here.

Going from CC(C)N1CCC(Cn2cc(CNc3cc(Cl)c4ncc(C#N)c(Nc5ccc(F)c(Cl)c5)c4c3)nn2)CC1 [Example 827] to CC1CC(C)CN(CCCn2cc(CNc3cc(Cl)c4ncc(C#N)c(Nc5ccc(F)c(Cl)c5)c4c3)nn2)C1 (centres unmarked) [Example 800], the IC50 rises from 11 nM to 150 nM (14-fold).

Compared with N#Cc1cnc2c(Br)cc(NCc3cn(CCOCCOCCO)nn3)cc2c1Nc1ccc(F)c(Cl)c1 [Example 741], CN(C)CCc1nc[nH]c1CNc1cc(Br)c2ncc(C#N)c(Nc3ccc(F)c(Cl)c3)c2c1 [Example 745] is 1.7-fold higher in IC50: 140 nM for the first, 240 nM for the second. The first is the more potent here.

Same assay, conditions: Tpl2/Cot kinase, GST-MEK1 substrate, 50 uM ATP, 1 h at 30° C.; Table 2

CN1CCCC1CCn1cc(CNc2ccc3ncc(C#N)c(NC4CCCCC4)c3c2)nn1 (centres unmarked) [Example 967] and CN1CCCC1CCn1cc(CNc2cc(Cl)c3ncc(C#N)c(NC4CCC4)c3c2)nn1 (centres unmarked) [Example 951] are the same in IC50: 460 nM for the first, 460 nM for the second.

N#Cc1cnc2c(Cl)cc(NCc3cn(C4CC5CCC(C4)N5CC4CC4)nn3)cc2c1Nc1ccc(F)c(Cl)c1 (centres unmarked) [Example 1057] and N#Cc1cnc2c(Cl)cc(NCc3cn(C4CC5CCC(C4)N5C=O)nn3)cc2c1Nc1ccc(F)c(Cl)c1 (centres unmarked) [Example 1059] are within 1.5-fold of each other in IC50: 11 nM for the first, 14 nM for the second.

Going from N#Cc1cnc2c(Cl)cc(NCc3cn(C4CCCN(CC(F)F)CC4)nn3)cc2c1Nc1ccc(F)c(Cl)c1 (centres unmarked) [Example 1010] to N#Cc1cnc2c(Cl)cc(NCc3cn(CCN4CCN(CC5CC5)CC4)nn3)cc2c1Nc1ccc(F)c(Cl)c1 [Example 966], the IC50 falls from 310 nM to 150 nM (2.1-fold). The second is the more potent here.

Compared with CC(C)(C)OC(=O)N1CCC(n2cc(CNc3cc(Cl)c4ncc(C#N)c(Nc5ccc(Oc6ccccc6)cc5)c4c3)nn2)CC1 [Example 989], N#Cc1cnc2c(Cl)cc(NCc3cn(CC(O)c4ccncc4)nn3)cc2c1Nc1ccc(F)c(Cl)c1 (centres unmarked) [Example 1001] is 21-fold lower in IC50: 400 nM for the first, 19 nM for the second.

Going from CN(C)CCn1cc(CNc2cc(Cl)c3ncc(C#N)c(NC4CCCCCC4)c3c2)nn1 [Example 950] to N#Cc1cnc2c(Cl)cc(NCc3cn(CCN4CCCCCC4)nn3)cc2c1NC1CCC2(CCCCC2)CC1 [Example 975], the IC50 rises from 620 nM to over 3000 nM.
